According to patent US20190105337A1, “METHODS OF TREATING BACTERIAL INFECTIONS” (priority 2015, published 2019):

Assay: Example 6: plasma, epithelial lining fluid (ELF) and alveolar macrophage (AM) concentrations at bronchoscopy with BAL
Conditions: 8-hour sampling time
Experimental: A total of twenty-five (n=25) male and female subjects who met the study entry criteria and completed all phases of the pharmacokinetic study were included in this pharmacokinetic analysis. […] Blood samples were collected to measure drug concentrations in plasma prior to (time 0), and at 1.5, 2.95, 3.083, 3.25, 3.5, 4, 6, and 8 hours after the start of a 3-hour intravenous infusion of the third combination dose.
Urea has been commonly used as an endogenous marker to estimate the apparent volume of ELF. Blood samples to determine plasma urea concentrations were obtained just prior to scheduled bronchoscopy. Aliquots of BAL were obtained to determine urea concentrations in BAL and cell count with differential. The standardized bronchoscopy with BAL procedure for the collection of intrapulmonary samples has been previously described in the references listed below.
(Reports MC14B-0013, MC14B-0015, MC14I-011, and MC14I-0012). The urea concentrations in plasma and BAL were performed with a microplate-based method with an 0-phthalaldehyde chromogenic solution at MicroConstants, Inc., San Diego, Calif.
The calculations of ELF volume and drug concentrations in ELF and AM were performed with BAL supernatant and pulmonary (alveolar) cells (“cell pellet”) from aspirates recovered from the 2nd, 3rd, and 4th instillations (BAL2). The concentration of drug (ABXELF) in the epithelial lining fluid (ELF) was determined as follows:
[…]
VELF is derived from the following:
where UreaBAL is the concentration of urea in BAL fluid and UreaP is the concentration of urea in plasma.
The concentration of drug (ABXAM) in the alveolar cells (AC) was determined as follows:
Differential cell count was performed to determine the number of macrophages present. A mean macrophage cell volume of 2.42 μl/106 cells was used in the calculations for volume of alveolar cells in the pellet suspension.
The concentration ratios of ELF and AM to the simultaneous plasma concentrations were calculated for each subject and summarized for each group at each sampling time. […] The 8-hour sampling time was also used as a value at time zero for determining the area term of plasma, ELF, and AM. The AUC0-8 for each matrix was determined with the linear trapezoidal method. The ratio of AUC0-8 of ELF to plasma and AM to plasma were calculated.

In the case of `C[C@@H](O)[C@@H](C(=O)O)[C@@H]1NC(C(=O)O)=C(S[C@@H]2CN[C@H](C(=O)N(C)C)C2)[C@@H]1C` [meropenem open-lactam], the ELF concentrations is reported as “below the quantifiable limit”.
